# Reference: ChEMBL document CHEMBL3352022, “Preparation and biological evaluation of 1'-cyano-2'-C-methyl pyrimidine nucleosides as HCV NS5B polymerase inhibitors” (Bioorg Med Chem Lett, 2014)
# Experiments:
# Hepatitis C virus [1] = assay: Antiviral activity against HCV1b assessed as inhibition of viral replication by cell based 384 well format assay; type: functional, Hepacivirus hominis; conditions: genotype 1b
# Hepatitis C virus [2] = assay: Antiviral activity against HCV1a assessed as inhibition of viral replication by cell based 384 well format assay; type: functional, Hepacivirus hominis; conditions: subtype 1a
# [3] = Inhibition of HCV1b NS5B polymerase; parameters: species or system Hepatitis C virus subtype 1b
# Hepatitis C virus [4] = assay: Antiviral activity against HCV1b in Rluc cells assessed as TP level per million cells after 24 hrs by liquid chromatography; type: functional, Hepacivirus hominis, genotype 1b
Structure (SMILES),IC50 [3],EC50 (Hepatitis C virus [1]),EC50 (Hepatitis C virus [2]),Activity (Hepatitis C virus [4])
C[C@@]1(O)[C@H](O)[C@@H](CO)O[C@@]1(C#N)c1ccc2c(N)ncnn12,,> 89000 nM,> 89000 nM,
CC(C)OC(=O)[C@H](C)N[P@](=O)(OC[C@H]1O[C@@](C#N)(n2ccc(N)nc2=O)[C@](C)(O)[C@@H]1OC(=O)C(C)C)Oc1ccccc1,,600 nM,250 nM,
C[C@@]1(O)[C@H](O)[C@@H](CO)O[C@H]1n1ccc(N)nc1=O,1670 nM,2800 nM,2500 nM,
CC(C)OC(=O)[C@H](C)N[P@+]([O-])(OC[C@H]1O[C@@](C#N)(c2ccc3c(N)ncnn23)[C@](C)(O)[C@@H]1OC(=O)C(C)C)Oc1ccccc1 [GS-6620],,240 nM,94 nM,40 pmol

# Further lines, with some results ahead:
IC50 [3],Structure (SMILES),EC50 (Hepatitis C virus [1]),EC50 (Hepatitis C virus [2]),Activity (Hepatitis C virus [4])
17700 nM,C[C@@]1(O)[C@H](O)[C@@H](CO)O[C@@]1(C#N)n1ccc(N)nc1=O,> 89000 nM,76000 nM,
27000 nM,C[C@@]1(O)[C@H](O)[C@@H](CO)O[C@@]1(C#N)n1ccc(=O)[nH]c1=O,> 89000 nM,> 89000 nM,
